Test results: patent US7772179B2, “Photodynamic therapy using chemiluminescence and a ligand-photosensitiser conjugate” (priority 2005, dated 2010)

Columns and labels:
K562 cells = assay: LTC cytotoxicity assay (PDT with ambient fluorescent light), trypan blue exclusion; type: cell-based, Human; settings: K-562 cells, external ambient fluorescent light
Protocol: (§1) (C); 0.5-1×10^5 cells/ml were cultured for 2 hr in the dark in medium alone or containing Hp or Tf-Hp (0-3 μM), washed, exposed to ambient fluorescent light for 16 hrs at room temperature and then re-cultured in full medium for 24 hrs. Cell viability was assessed by trypan blue exclusion. The data represent the mean and standard deviation from at least 3 experiments;
(§2) Late log-phase cells were washed with DMEM pre-warmed to 37° C. and cultured at 0.5-1×10^5 cells/ml either alone or with increasing concentrations of Tf-Hp LTC for 2 hrs at 37° C. in 6% CO2. Cells were then washed with DMEM, exposed to ambient fluorescent light (fluence rate=0.5 mW/cm^2) for 12-16 hours and then re-cultured in full medium for 24 hrs. […] Experiments were repeated at least three times.

FL cells [1] = settings: in the dark
FL cells [2] = assay: LTC cytotoxicity assay (PDT with ambient fluorescent light), trypan blue exclusion; type: cell-based
Protocol: as §1, §2

Compound	maximum cytotoxicity (LDMAX) (K562 cells)	maximum cytotoxicity together with luminol (FL cells [1]; together with 10 μM luminol, no external light)	maximum cytotoxicity (LDMAX) (FL cells [2]; FL cells, external ambient fluorescent light)	sensitivity of FL cells relative to K-562 at LDMAX (FL cells [2]; free Hp treatment, FL versus K-562)	maximum activity (cytotoxicity) (FL cells [2]; optimization of the LTC cytotoxicity assay, about 2 hr exposure, cell line not stated)	cytotoxicity, luminol alone (FL cells [1]; 10 μM luminol, no Ps)
CC1=C(CCC(=O)O)c2cc3[nH]c(cc4nc(cc5[nH]c(cc1n2)c(C)c5C(C)O)C(C)=C4C(C)O)c(C)c3CCC(=O)O (stereo not drawn) [Hp, hematoporphyrin]	90%	30%	90%	16.6	24%	
Nc1cccc2c(=O)[nH][nH]c(=O)c12 [luminol, 5-amino-2-3-dihydro-1,4-phtalazinedione]						about 15%
